{"source": "PubChem BioAssay AID1195", "about": "(EPA DSSTox, 2008)", "tested_on": "human maximum recommended daily dose, FDA database", "experiment": "DSSTox (FDAMDD) FDA Maximum (Recommended) Daily Dose Database", "settings": "stronger effect = lower value", "in_short": "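MRDD values come from clinical trials with daily oral dosing, usually for 3–12 months, for the average adult, in mg/day converted to mg/kg-bw/day assuming 60 kg. Antineoplastic mg/m2 doses are divided by 37. Activity score maps log10(1/MRDD mmol) onto 1–100.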", "key": {"[1]": {"settings": "TherapeuticCategory: antiemetic"}, "[2]": {"settings": "TherapeuticCategory: diagnostic aid"}, "[3]": {"settings": "TherapeuticCategory: antibacterial"}, "[4]": {"settings": "TherapeuticCategory: antihypertensive"}, "[5]": {"settings": "TherapeuticCategory: sedative, hypnotic"}}, "data": [{"compound": "NC(=O)C1CCN(CCCN2c3ccccc3Sc3ccc(Cl)cc32)CC1", "values": [{"measurement": "maximum recommended daily dose (mmol/kg-bw/day)", "setting": "[1]", "result": 0.000622}]}, {"compound": "CC(O)Cn1cnc2c1c(=O)n(C)c(=O)n2C", "note": "(stereo not given)", "values": [{"measurement": "maximum recommended daily dose (mmol/kg-bw/day)", "setting": "TherapeuticCategory: bronchodilator, vasodilator, smooth muscle relaxant", "result": 0.168}]}, {"compound": "COCCOc1cnc(NS(=O)(=O)c2ccccc2)nc1", "values": [{"measurement": "maximum recommended daily dose (mmol/kg-bw/day)", "setting": "TherapeuticCategory: antidiabetic", "result": 0.108}]}, {"compound": "CCOC(=O)CCCCCCCCC(C)c1cccc(I)c1", "note": "(stereo not given)", "values": [{"measurement": "maximum recommended daily dose (mmol/kg-bw/day)", "setting": "[2]", "result": 0.3}]}, {"compound": "NS(=O)(=O)c1cc(Cl)c(Cl)c(S(N)(=O)=O)c1", "values": [{"measurement": "maximum recommended daily dose (mmol/kg-bw/day)", "setting": "TherapeuticCategory: carbonic anhydrase inhibitor", "result": 0.0109}]}, {"compound": "N[C@@H](C(=O)N[C@@H]1C(=O)N2C(C(=O)O)=C(Cl)CC[C@H]12)c1ccccc1", "values": [{"measurement": "maximum recommended daily dose (mmol/kg-bw/day)", "setting": "[3]", "result": 0.0181}]}, {"compound": "c1ccc([C@H]2CN3CCSC3=N2)cc1", "values": [{"measurement": "maximum recommended daily dose (mmol/kg-bw/day)", "setting": "TherapeuticCategory: anthelmintic", "result": 0.00408}]}, {"compound": "C#C[C@]1(O)CC[C@H]2[C@@H]3CCC4=CC(=O)CC[C@]4(C)[C@H]3CC[C@@]21C", "values": [{"measurement": "maximum recommended daily dose (mmol/kg-bw/day)", "setting": "TherapeuticCategory: progestogen", "result": 0.00534}]}, {"compound": "CCOC(=O)C1=C(C)NC(C)=C(C(=O)OC)C1c1cccc([N+](=O)[O-])c1", "note": "(stereo not given)", "values": [{"measurement": "maximum recommended daily dose (mmol/kg-bw/day)", "setting": "[4]", "result": 0.000924}]}, {"compound": "CC(=O)O[C@H]1C[C@@H]2CC[C@@H]3[C@H](CC[C@@]4(C)[C@H]3C[C@H](N3CC[N+](C)(C)CC3)[C@@H]4OC(C)=O)[C@@]2(C)C[C@@H]1N1CC[N+](C)(C)CC1", "values": [{"measurement": "maximum recommended daily dose (mmol/kg-bw/day)", "setting": "TherapeuticCategory: skeletal muscle relaxant", "result": 0.000118}]}, {"compound": "NC[C@@H]1O[C@H](O[C@H]2[C@@H](O)[C@H](O[C@@H]3[C@@H](O)[C@H](N)C[C@H](N)[C@H]3O[C@H]3O[C@H](CN)[C@@H](O)[C@H](O)[C@H]3N)O[C@@H]2CO)[C@H](N)[C@@H](O)[C@@H]1O", "values": [{"measurement": "maximum recommended daily dose (mmol/kg-bw/day)", "setting": "[3]", "result": 0.163}]}, {"compound": "Nc1ncnc2c1ncn2[C@@H]1O[C@H](CO)[C@@H](O)[C@H]1O", "values": [{"measurement": "maximum recommended daily dose (mmol/kg-bw/day)", "setting": "TherapeuticCategory: antiarrhythmic", "result": 0.00748}]}, {"compound": "Cc1onc(-c2c(Cl)cccc2Cl)c1C(=O)N[C@@H]1C(=O)N2[C@@H]1SC(C)(C)[C@@H]2C(=O)O", "values": [{"measurement": "maximum recommended daily dose (mmol/kg-bw/day)", "setting": "[3]", "result": 0.0355}]}, {"compound": "CCC1(C2=CCCCC2)C(=O)NC(=O)NC1=O", "values": [{"measurement": "maximum recommended daily dose (mmol/kg-bw/day)", "setting": "[5]", "result": 0.0282}]}, {"compound": "COc1cc(C(=O)NCc2ccc(OCCN(C)C)cc2)cc(OC)c1OC", "values": [{"measurement": "maximum recommended daily dose (mmol/kg-bw/day)", "setting": "[1]", "result": 0.043}]}, {"compound": "CC1(C)N=C(N)N=C(N)N1c1ccc(Cl)cc1", "values": [{"measurement": "maximum recommended daily dose (mmol/kg-bw/day)", "setting": "TherapeuticCategory: antimalarial", "result": 0.00132}]}, {"compound": "COc1cc([C@@H]2c3cc4c(cc3C(O[C@@H]3O[C@@H]5CO[C@@H](C)O[C@H]5[C@H](O)[C@H]3O)C3COC(=O)[C@@H]32)OCO4)cc(OC)c1O", "note": "(stereo not given in full)", "values": [{"measurement": "maximum recommended daily dose (mmol/kg-bw/day)", "setting": "TherapeuticCategory: antineoplastic", "result": 0.00459}]}, {"compound": "CO/N=C(/C(=O)N[C@@H]1C(=O)N2C(C(=O)OC(C)OC(=O)C(C)(C)OC)=C(COC(N)=O)CS[C@H]12)c1ccco1", "note": "(stereo not given in full)", "values": [{"measurement": "maximum recommended daily dose (mmol/kg-bw/day)", "setting": "[3]", "result": 0.0294}]}, {"compound": "CC(C)(Oc1ccc(C2CC2(Cl)Cl)cc1)C(=O)O", "note": "(stereo not given)", "values": [{"measurement": "maximum recommended daily dose (mmol/kg-bw/day)", "setting": "TherapeuticCategory: antihyperlipoproteinemic", "result": 0.00578}]}, {"compound": "CC(=O)c1ccc2c(c1)N(CCCN(C)C)c1ccccc1S2", "values": [{"measurement": "maximum recommended daily dose (mmol/kg-bw/day)", "setting": "TherapeuticCategory: tranquilizer", "result": 0.000459}]}, {"compound": "Cc1nnc2n1-c1sc(Br)cc1C(c1ccccc1Cl)=NC2", "values": [{"measurement": "maximum recommended daily dose (mmol/kg-bw/day)", "setting": "[5]", "result": "1.06e-05"}]}, {"compound": "CC(=O)NO", "values": [{"measurement": "maximum recommended daily dose (mmol/kg-bw/day)", "setting": "TherapeuticCategory: antiurolithic, antibacterial adjunct", "result": 0.222}]}, {"compound": "CN1CCN(CC(=O)N2c3ccccc3C(=O)Nc3cccnc32)CC1", "values": [{"measurement": "maximum recommended daily dose (mmol/kg-bw/day)", "setting": "TherapeuticCategory: antiulcerative", "result": 0.00711}]}, {"compound": "CCN(CC)CCOC(=O)C(O)(c1ccccc1)c1ccccc1", "values": [{"measurement": "maximum recommended daily dose (mmol/kg-bw/day)", "setting": "TherapeuticCategory: antidepressant, anticholinergic", "result": 0.000458}]}, {"compound": "CCOC(=O)[C@H](CCc1ccccc1)N[C@@H](C)C(=O)N1CCC[C@H]1C(=O)O", "values": [{"measurement": "maximum recommended daily dose (mmol/kg-bw/day)", "setting": "[4]", "result": 0.00177}]}, {"compound": "CCC(C)(C)N=C(N)NC#N", "values": [{"measurement": "maximum recommended daily dose (mmol/kg-bw/day)", "setting": "[4]", "result": 0.0674}]}, {"compound": "COC(=O)[C@H]1[C@H]2C[C@@H]3c4[nH]c5cc(OC)ccc5c4CCN3C[C@H]2C[C@@H](OC(=O)/C=C/c2cc(OC)c(OC)c(OC)c2)[C@@H]1OC", "values": [{"measurement": "maximum recommended daily dose (mmol/kg-bw/day)", "setting": "[4]", "result": "2.63e-05"}]}, {"compound": "CCC(Cc1c(I)cc(I)c(N)c1I)C(=O)O", "note": "(stereo not given)", "values": [{"measurement": "maximum recommended daily dose (mmol/kg-bw/day)", "setting": "[2]", "result": 0.175}]}, {"compound": "CC1=C(C(=O)O)N2C(=O)[C@@H](NC(=O)[C@H](N)c3ccccc3)[C@H]2SC1", "values": [{"measurement": "maximum recommended daily dose (mmol/kg-bw/day)", "setting": "[3]", "result": 0.192}]}, {"compound": "COc1ccc2c3c1O[C@H]1C(=O)CC[C@@]4(O)[C@@H](C2)N(C)CC[C@]314", "values": [{"measurement": "maximum recommended daily dose (mmol/kg-bw/day)", "setting": "TherapeuticCategory: narcotic analgesic", "result": 0.0169}]}]}
